Article PMC2074348, “Preclinical in vivo efficacy of two 9-dihydrotaxane analogues against human and murine tumours” (British Journal of Cancer, 1996)
≈ marks a conversion by molar mass, not a printed value. Like-named read-outs stand apart in the source and are kept apart here.

Legend:
[1] = Pharmacokinetics following i.p. dosing in mice; details: for t1/2 / Cmax / Tmax / AUC / AUC value (rounded) / Cmax (rounded): 20 mg kg-1 i.p.; for t1/2 / Cmax / Tmax / AUC: male CD-1 mice; for t1/2 / AUC / AUC value (rounded) / Cmax (rounded): plasma; for Cmax / Tmax: plasma (Table VI); for AUC: 0-12 h, trapezoidal (Table VI); for AUC value (rounded) / Cmax (rounded): mice; for Serum concentrations compared with paclitaxel: at equal dosages
B16F10 = assay: In vitro tumour cell cytotoxicity, colorimetric MTT assay, 72 h; assay type: cell-based, murine; details: 72 h exposure
P388 = assay: as above; assay type: cell-based, murine; details: 72 h exposure
[2] = tested on: murine B16F10 melanoma ascites tumour; assay: In vivo efficacy vs i.p. B16F10 melanoma ascites tumour; details: for Cure rate at optimal non-toxic dose / Optimal increase in life span (ILS): at non-toxic doses; for %ILS (group mean increase in lifespan) / Per cent cures (mice alive 60 days after inoculation) / Per cent toxicity (mice with premature death) / MST (mean survival time ± s.d.): q.d., i.p., days 1-5 after inoculation, BDF1 mice; for Efficacy against murine B16 ascites tumour compared with paclitaxel: mouse, in vivo
A549 = assay: In vitro tumour cell cytotoxicity, colorimetric MTT assay, 72 h; assay type: cell-based, human; details: 72 h exposure
HT-29 = assay: as above; assay type: cell-based, human; details: 72 h exposure
[3] = tested on: A549, HT-29, B16F10 and P388 tumour cells; assay: In vitro cytotoxicity across the four tumour cell lines, compared with paclitaxel; assay type: cell-based; details: human and murine tumour cells
[4] = tested on: BDF mice bearing B16F10 ascites tumours; details: […]
[5] = tested on: human MX-1 xenograft solid tumour; details: for Cure rate / Delay in tumour growth compared with untreated controls: once daily on days 1-5 after inoculation
murine M109 solid tumour = assay: In vivo efficacy vs subcutaneous M109 solid tumour; details: for Days (1.0 g): days to reach mean tumour mass = 1.0 g ± s.d. / Delay (1.0 g): delay to reach mean tumour mass = 1.0 g, compared with untreated / Per cent cures (mice with no palpable tumours, day 60) / Per cent toxicity / TWI (per cent tumour weight inhibition when untreated control mean = 1.0 g): q.d., i.p., days 1, 5, 9 after inoculation, s.c. tumour, BDF1 mice; for Optimal dose: i.p. every fourth day for three total injections (days 1, 5, 9 after inoculation); for Delay in solid tumour growth to 1 g: paclitaxel at a non-toxic dose
[6] = i.p. once daily for 5 consecutive days
[7] = dose 12.5 mg kg-1 per day, q.d., i.p., days 1-5 after inoculation, s.c. xenograft, nude mice
[8] = dose 25 mg kg-1 per day, q.d., i.p., days 1-5 after inoculation, s.c. xenograft, nude mice
[9] = dose 50 mg kg-1 per day, q.d., i.p., days 1-5 after inoculation, s.c. xenograft, nude mice
[10] = dose 100 mg kg-1 per day, q.d., i.p., days 1-5 after inoculation, s.c. xenograft, nude mice

## CC(=O)OC12COC1CC(O)C1(C)C(O)C(O)C3=C(C)C(OC(=O)C(O)C(NC(=O)c4ccccc4)c4ccccc4)CC(O)(C(OC(=O)c4ccccc4)C21)C3(C)C (stereo not drawn) [Compound A-86415, 10-deacetyl-9-dihydrotaxol]
[1]
  t1/2: 2.8 h
  Cmax: 11.19 ig ml-1
  Tmax: 1.40 h
  AUC: 29.81 ig per h ml-1
  AUC value (rounded): 30 jg h-1 ml-1
  Cmax (rounded): 11 jg ml-1
  Serum concentrations compared with paclitaxel: less than paclitaxel
B16F10
  IC50: 0.039 µg/mL (≈ 0.0479 µM)
P388
  IC50: 0.014 µg/mL (≈ 0.0172 µM)
[2]; [6]
  Cure rate at optimal non-toxic dose: 10%
  Optimal increase in life span (ILS): 83%
[2]; dose 25 mg kg-1 per day
  %ILS (group mean increase in lifespan): 52%
  Per cent cures (mice alive 60 days after inoculation): 0%
  Per cent toxicity (mice with premature death): 0%
[2]; dose 50 mg kg-1 per day
  %ILS (group mean increase in lifespan): 83%
  MST (mean survival time ± s.d.): 36.1 ± 4.5 days
  Per cent cures (mice alive 60 days after inoculation): 10%
  Per cent toxicity (mice with premature death): 0%
[2]; dose 100 mg kg-1 per day
  %ILS (group mean increase in lifespan): 77%
  Per cent cures (mice alive 60 days after inoculation): 0%
  Per cent toxicity (mice with premature death): 0%
[2]
  Efficacy against murine B16 ascites tumour compared with paclitaxel: as effective as paclitaxel
A549
  IC50: 0.011 µg/mL (≈ 0.0135 µM)
HT-29
  IC50: 0.0019 µg/mL (≈ 0.00233 µM)
[3]
  In vitro potency compared with paclitaxel: generally less than that of paclitaxel
[4]
  MTD (q.d. days 1-5): greater than 100 mg kg-1 per day
[5]; [7]
  Delay (1.0 g) (footnote: delay to reach mean tumour mass = 0.5 g, compared with untreated): 0 days
  Per cent cures (mice with no palpable tumours, day 60): 20%
  Per cent toxicity: 0%
  TWI (per cent tumour weight inhibition when untreated control mean = 0.5 g): 27%
[5]; [8]
  Days to 1.0 g (footnote: days to reach mean tumour mass = 0.5 g ± s.d.): 33.3 + 7.6 days
  Delay (1.0 g) (footnote: delay to reach mean tumour mass = 0.5 g, compared with untreated): 5.4 days
  Per cent cures (mice with no palpable tumours, day 60): 10%
  Per cent toxicity: 0%
  TWI (per cent tumour weight inhibition when untreated control mean = 0.5 g): 73%
[5]; [9]
  Delay (1.0 g) (footnote: delay to reach mean tumour mass = 0.5 g, compared with untreated): 14.7 days
  Per cent cures (mice with no palpable tumours, day 60): 30%
  Per cent toxicity: 0%
  TWI (per cent tumour weight inhibition when untreated control mean = 0.5 g): 99%
[5]; [10]
  Delay (1.0 g) (footnote: delay to reach mean tumour mass = 0.5 g, compared with untreated): 33.1 days
  Per cent cures (mice with no palpable tumours, day 60): 70%
  Per cent toxicity: 0%
  TWI (per cent tumour weight inhibition when untreated control mean = 0.5 g): 100%
[5]
  Cure rate: 70%
  Delay in tumour growth compared with untreated controls: 33 days
Murine M109 solid tumour; dose 25 mg kg-1 per day
  Days (1.0 g): days to reach mean tumour mass = 1.0 g ± s.d.: 12.0+0 days
  Delay (1.0 g): delay to reach mean tumour mass = 1.0 g, compared with untreated: 0 days
  Per cent cures (mice with no palpable tumours, day 60): 0%
  Per cent toxicity: 0%
  TWI (per cent tumour weight inhibition when untreated control mean = 1.0 g): 10%
Murine M109 solid tumour; dose 50 mg kg-1 per day
  Days (1.0 g): days to reach mean tumour mass = 1.0 g ± s.d.: 12.0+0 days
  Delay (1.0 g): delay to reach mean tumour mass = 1.0 g, compared with untreated: 0 days
  Per cent cures (mice with no palpable tumours, day 60): 0%
  Per cent toxicity: 0%
  TWI (per cent tumour weight inhibition when untreated control mean = 1.0 g): 19%
Murine M109 solid tumour; dose 100 mg kg-1 per day
  Delay (1.0 g): delay to reach mean tumour mass = 1.0 g, compared with untreated: 5.1 days
  Per cent cures (mice with no palpable tumours, day 60): 0%
  Per cent toxicity: 0%
  TWI (per cent tumour weight inhibition when untreated control mean = 1.0 g): 79%
Murine M109 solid tumour
  Optimal dose: 100 mg kg-1 injection
  Delay in solid tumour growth to 1 g: 5.1 days

## CC(=O)O[C@@H]1C2=C(C)[C@@H](OC(=O)[C@H](O)[C@@H](NC(=O)c3ccccc3)c3ccccc3)C[C@@](O)([C@@H](OC(=O)c3ccccc3)[C@@H]3[C@]4(OC(C)=O)CO[C@@H]4C[C@H](O)[C@@]3(C)[C@H]1O)C2(C)C [Compound A-85576, 9-dihydrotaxol]
[1]
  t1/2: 1.9 h
  Cmax: 40.32 ig ml-1
  Tmax: 0.58 h
  AUC: 75.62 ig per h ml-1
  AUC value (rounded): over 75 jg h-1 ml-1
  Cmax (rounded): 40 jg ml-1
  Serum concentrations compared with paclitaxel: greater than paclitaxel
B16F10
  IC50: 0.025 µg/mL (≈ 0.0292 µM)
P388
  IC50: 0.053 µg/mL (≈ 0.0619 µM)
[2]; [6]
  Cure rate at optimal non-toxic dose: 0%
  Optimal increase in life span (ILS): 39%
  Optimal dose: 50 mg/kg/day
[2]; dose 25 mg kg-1 per day
  %ILS (group mean increase in lifespan): 21%
  MST (mean survival time ± s.d.): 23.9 ± 4.3 days
  Per cent cures (mice alive 60 days after inoculation): 0%
  Per cent toxicity (mice with premature death): 0%
[2]; dose 50 mg kg-1 per day
  %ILS (group mean increase in lifespan): 39%
  Per cent cures (mice alive 60 days after inoculation): 0%
  Per cent toxicity (mice with premature death): 0%
[2]; dose 100 mg kg-1 per day
  %ILS (group mean increase in lifespan): 46%
  Per cent cures (mice alive 60 days after inoculation): 0%
  Per cent toxicity (mice with premature death): 20%
[2]
  Efficacy against murine B16 ascites tumour compared with paclitaxel: less effective
A549
  IC50: 0.019 µg/mL (≈ 0.0222 µM)
HT-29
  IC50: 0.008 µg/mL (≈ 0.00935 µM)
[3]
  In vitro potency compared with paclitaxel: generally less than that of paclitaxel
[5]; [7]
  Delay (1.0 g) (footnote: delay to reach mean tumour mass = 0.5 g, compared with untreated): 1.6 days
  Per cent cures (mice with no palpable tumours, day 60): 0%
  Per cent toxicity: 0%
  TWI (per cent tumour weight inhibition when untreated control mean = 0.5 g): 31%
[5]; [8]
  Delay (1.0 g) (footnote: delay to reach mean tumour mass = 0.5 g, compared with untreated): 5.9 days
  Per cent cures (mice with no palpable tumours, day 60): 0%
  Per cent toxicity: 0%
  TWI (per cent tumour weight inhibition when untreated control mean = 0.5 g): 65%
[5]; [9]
  Delay (1.0 g) (footnote: delay to reach mean tumour mass = 0.5 g, compared with untreated): 12.4 days
  Per cent toxicity: 0%
  TWI (per cent tumour weight inhibition when untreated control mean = 0.5 g): 94%
[5]; [10]
  Delay (1.0 g) (footnote: delay to reach mean tumour mass = 0.5 g, compared with untreated): 21.1 days
  Per cent cures (mice with no palpable tumours, day 60): 60%
  Per cent toxicity: 0%
  TWI (per cent tumour weight inhibition when untreated control mean = 0.5 g): 98%
[5]
  Cure rate: 60%
  Delay in tumour growth compared with untreated controls: 21 days
Murine M109 solid tumour; dose 25 mg kg-1 per day
  Days (1.0 g): days to reach mean tumour mass = 1.0 g ± s.d.: 13.6+2.3 days
  Delay (1.0 g): delay to reach mean tumour mass = 1.0 g, compared with untreated: 1.6 days
  Per cent cures (mice with no palpable tumours, day 60): 0%
  Per cent toxicity: 0%
  TWI (per cent tumour weight inhibition when untreated control mean = 1.0 g): 34%
Murine M109 solid tumour; dose 50 mg kg-1 per day
  Days (1.0 g): days to reach mean tumour mass = 1.0 g ± s.d.: 14.1+3.2 days
  Delay (1.0 g): delay to reach mean tumour mass = 1.0 g, compared with untreated: 2.1 days
  Per cent cures (mice with no palpable tumours, day 60): 0%
  Per cent toxicity: 0%
  TWI (per cent tumour weight inhibition when untreated control mean = 1.0 g): 46%
Murine M109 solid tumour; dose 100 mg kg-1 per day
  Delay (1.0 g): delay to reach mean tumour mass = 1.0 g, compared with untreated: 10.5 days
  Per cent cures (mice with no palpable tumours, day 60): 0%
  Per cent toxicity: 0%
  TWI (per cent tumour weight inhibition when untreated control mean = 1.0 g): 90%
Murine M109 solid tumour
  Optimal dose: 100 mg kg-1 injection
  Delay in solid tumour growth to 1 g: 10.5 days
